Experimental findings from patent publication US6410792B1, “Amide derivatives and methods for using the same as selective neuropeptide Y receptor antagonists” (Bayer Corporation, priority 1997, dated 2002) are described below.

One assay addresses T1, Y2 receptor (Homo sapiens, UniProt P49146).
T1 sequence (P49146 1-381): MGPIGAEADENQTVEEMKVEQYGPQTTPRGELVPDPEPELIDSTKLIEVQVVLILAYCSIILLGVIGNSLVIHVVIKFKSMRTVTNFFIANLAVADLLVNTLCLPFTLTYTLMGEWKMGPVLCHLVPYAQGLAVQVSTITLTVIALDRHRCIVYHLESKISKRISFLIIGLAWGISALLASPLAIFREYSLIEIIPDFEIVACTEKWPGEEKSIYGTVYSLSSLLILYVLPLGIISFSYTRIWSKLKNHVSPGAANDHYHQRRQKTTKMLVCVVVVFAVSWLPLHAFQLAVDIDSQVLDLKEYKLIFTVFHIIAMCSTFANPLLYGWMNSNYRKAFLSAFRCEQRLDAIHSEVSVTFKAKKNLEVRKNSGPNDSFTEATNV
The assay can be described thus: Y2 receptor binding assay ([125I]PYY, membrane protein). The settings on record: [125I]PYY binding, membrane protein; read-out: hNPY2 IC50. On the procedure:
B. Human Y2 and Y4/PP1 Receptor Binding Assays
Binding assays were performed on GF/C Millipore 96-well plates pretreated with 0.02% polyethylenimine. The binding buffer for rat Y2 binding is Krebs-Ringer bicarbonate (pH 7.4) containing 0.01% BSA and 0.005% bacitracin. Samples consist of membrane protein, 25 pM [1251]PYY and drug dilution. Nonspecific binding is defined by 1 μM NPY. The binding buffer for human Y4/PP1 binding consists of 137 mM NaCl, 5.4 mM KCl, 0.44 mM KH2PO4, 1.26 mM CaCl2, 0.81 mM MgSO4, 20 mM HEPES, 1 mM dithiothreitol, 0.1% bacitracin, 100 mg/l streptomycin sulfate, 1 mg/l aprotinin, 10 mg/ml soybean trypsin inhibitor and 0.3% BSA, pH 7.4. Samples consist of membrane protein, 50 pM human [1251]human PP (hPP: NEN DuPont, Boston, Mass.) and drug dilution. 1 μM hPP is used to define nonspecific binding.
After a 2 hour incubation at room temperature with constant mixing, the samples are aspirated on a vacuum manifold, and rinsed with ice-cold binding buffer. The amount of radioactivity in each well is quantitated with either gamma counting or liquid scintillation.

A further assay addresses T2, Human NPY5 receptor (Homo sapiens, UniProt Q15761).
T2 sequence (Q15761 1-445): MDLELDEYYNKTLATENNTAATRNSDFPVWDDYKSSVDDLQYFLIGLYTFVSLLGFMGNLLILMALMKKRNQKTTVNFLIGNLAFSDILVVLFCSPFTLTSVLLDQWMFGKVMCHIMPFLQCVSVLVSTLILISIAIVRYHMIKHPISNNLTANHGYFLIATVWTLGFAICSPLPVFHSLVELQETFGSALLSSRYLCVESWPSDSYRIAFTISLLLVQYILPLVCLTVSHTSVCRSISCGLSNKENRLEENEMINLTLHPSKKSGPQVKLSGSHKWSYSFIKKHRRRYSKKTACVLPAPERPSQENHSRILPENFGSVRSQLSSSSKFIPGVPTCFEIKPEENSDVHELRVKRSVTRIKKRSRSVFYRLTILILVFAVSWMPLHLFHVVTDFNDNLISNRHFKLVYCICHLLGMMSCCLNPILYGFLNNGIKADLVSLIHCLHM
The experiment in a line: Human NPY5 receptor binding assay ([125I]PYY, membrane protein). The settings on record: [125I]PYY binding, read-out: hNPY5 IC50. On the procedure:
C. Human and Rat NPY5 Receptor Binding Assays
Binding assays are performed on GF/C Millipore 96well plates pretreated with 0.02% polyethylenimine. The binding buffer is 25 mM Tris, 120 mM NaCl, 5 mM KCl, 1.2 mM KH2PO4, 2.5 mM CaCl2, 1.2 mM MgSO4, 0.1% BSA and 0.5 mg/ml bacitracin, pH 7.4. Samples consist of membrane protein, 75-100 pM [125I]PYY (porcine, NEN-DuPont) and drug dilution. Nonspecific binding is defined by 1 μM PYY. After a 2 hour incubation at room temperature with constant mixing, the samples are aspirated on a vacuum manifold, and rinsed with ice-cold binding buffer. The amount of radioactivity in each well is quantitated with either gamma counting or liquid scintillation.

Turning to `O=C(CN1CCC[C@H]1CN1CCCC1)Nc1ccc(C(=O)c2ccccc2)cc1` [Compound 78, N-(4-Benzoyl-phenyl)-2-(2S-pyrrolidin-1-ylmethyl-pyrrolidin-1-yl)-acetamide], the IC50 at Y2 receptor and at Human NPY5 receptor was more than 5 µM in each case.
Consider `CN(C)C1(C(N)=O)CCN(CC(=O)Nc2ccc(C3CCCCC3)cc2)CC1` [Compound 36, 1-[(4-Cyclohexyl-phenylcarbamoyl)-methyl]-4-dimethylamino-piperidine-4-carboxylic acid amide], for which the half-inhibitory concentration (IC50) is more than 5 µM at Y2 receptor and 0.71 µM at Human NPY5 receptor.
In the case of `CC1(C)CCN(CC(=O)Nc2ccc(C(=O)c3ccccc3)cc2)CC1` [Compound 51, N-(4-Benzoyl-phenyl)-2-(4,4-dimethyl-piperidin-1-yl)-acetamide], the results for the IC50 on Y2 receptor and on Human NPY5 receptor were more than 5 µM and 3.3 µM, respectively.
Regarding `CC1(C)C[C@@H]2C[C@@](C)(CN2CC(=O)Nc2ccc(C3CCCCC3)cc2)C1` [Compound 94, N-(4-Cyclohexyl-phenyl)-2-((1S,5R)-1,3,3-trimethyl-6-aza-bicyclo[3.2.1]oct-6-yl)-acetamide], the half-maximal inhibitory concentration (IC50) at Y2 receptor is more than 5 µM; at Human NPY5 receptor, 3.2 µM.
In the same order, the values of `O=C(CNCC1CCNCC1)Nc1ccc(C(=O)c2ccccc2)cc1` [Compound 43, N-(4-Benzoyl-phenyl)-2-[(piperidin-4-ylmethyl)-amino]-acetamide] are more than 5 µM and more than 10 µM.
In the same order, the values of `NC(=O)C1CCCN1CC(=O)Nc1ccc(C(=O)c2ccccc2)cc1` (stereo not shown) [Compound 123, 1-[(4-Benzoyl-phenylcarbamoyl)-methyl]-pyrrolidine-2-carboxylic acid amide] are more than 5 µM and 0.91 µM.
`O=C(CN1CCC(O)C1)Nc1ccc(C2CCCCC2)cc1` (stereo not shown) [Compound 92, N-(4-Cyclohexyl-phenyl)-2-(3-hydroxy-pyrrolidin-1-yl)-acetamide]: the concentration for half-maximal inhibition (IC50) is more than 5 µM at Y2 receptor and 1.3 µM on Human NPY5 receptor.
For the compound `O=C(CN1CCC(C(=O)c2ccc(F)cc2)CC1)Nc1ccc(C(=O)c2ccccc2)cc1` [Compound 121, N-(4-Benzoyl-phenyl)-2-[4-(4-fluoro-benzoyl)-piperidin-1-yl]-acetamide], the half-maximal inhibitory concentration (IC50) at Y2 receptor was more than 5 µM; on Human NPY5 receptor, 0.095 µM.
On the same counts, the results for `CC1CCN(CC(=O)Nc2ccc(C3CCCCC3)cc2)CC1` [Compound 33, N-(4-Cyclohexyl-phenyl)-2-(4-methyl-piperidin-1-yl)-acetamide] are more than 5 µM and more than 10 µM.
On the same counts, the results for `O=C(CN1CCC[C@H]1C(=O)OCc1ccccc1)Nc1ccc(C(=O)c2ccccc2)cc1` [Compound 106, (2S)-1-[(4-Benzoyl-phenylcarbamoyl)-methyl]-pyrrolidine-2-carboxylic acid benzyl ester] are more than 5 µM and 3 µM.
As to `O=C(CN1CCC(C(=O)N2CCCCC2)(c2ccccc2)CC1)Nc1ccc(C2CCCCC2)cc1` [Compound 72, N-(4-Cyclohexyl-phenyl)-2-[4-phenyl-4-(piperidine-1-carbonyl)-piperidin-1-yl]-acetamide], the IC50 was more than 5 µM at Y2 receptor and 1 µM on Human NPY5 receptor.
In the same order, the values of `O=C(CN1CCC(C(=O)N2CCCCC2)(c2ccccc2)CC1)Nc1ccc(C(=O)c2ccccc2)cc1` [Compound 73, N-(4-Benzoyl-phenyl)-2-[4-phenyl-4-(piperidine-1-carbonyl)-piperidin-1-yl]-acetamide] are more than 5 µM and more than 5 µM.
Turning to `O=C(CN1CCC(O)CC1)Nc1ccc(C(=O)c2ccccc2)cc1` [Compound 42, N-(4-Benzoyl-phenyl)-2-(4-hydroxy-piperidin-1-yl)-acetamide], the results for the IC50 at Y2 receptor and at Human NPY5 receptor were more than 5 µM and 1.6 µM, respectively.
On the same counts, the results for `O=C(CN1CCC[C@H]1C(=O)OCc1ccccc1)Nc1ccc(C2CCCCC2)cc1` [Compound 95, (2S)-1-[(4-Cyclohexyl-phenylcarbamoyl)-methyl]-pyrrolidin-2-carboxylic acid benzyl ester] are more than 5 µM and 1.6 µM.
As for `COC[C@@H]1CCCN1CC(=O)Nc1ccc(C(=O)c2ccccc2)cc1` [Compound 104, N-(4-Benzoyl-phenyl)-2-(2S-methoxymethyl-pyrrolidin-1-yl)-acetamide], the results for the half-inhibitory concentration (IC50) on Y2 receptor and at Human NPY5 receptor were more than 5 µM and 0.49 µM, respectively.
For the compound `CC1(C)CC(C(N)=O)C(C)(C)N1CC(=O)Nc1ccc(C(=O)c2ccccc2)cc1` (stereo not shown) [Compound 119, 1-[(4-Benzoyl-phenylcarbamoyl)-methyl]-2,2,5,5-tetramethyl-pyrrolidine-3-carboxylic acid amide], the IC50 at Y2 receptor was more than 5 µM; on Human NPY5 receptor it was 3.6 µM.
On to `O=C(CN1CCC(CCC2CCNCC2)CC1)Nc1ccc(C(=O)c2ccccc2)cc1` [Compound 55, n-(4-Benzoyl-phenyl)-2-[4-(2-piperidin-4-ylethyl)-piperidin-1-yl]-acetamide], for which the values for the IC50 at Y2 receptor and on Human NPY5 receptor were more than 5 µM and more than 10 µM, respectively.
On the same counts, the results for `O=C(CN1CCC(O)C1)Nc1ccc(C(=O)c2ccccc2)cc1` (stereo not shown) [Compound 103, N-(4-Benzoyl-phenyl)-2-(3-hydroxy-pyrrolidin-1-yl)-acetamide] are more than 5 µM and 3 µM.
`CC(=O)C1(c2ccccc2)CCN(CC(=O)Nc2ccc(C3CCCCC3)cc2)CC1` [Compound 87, 2-(4-Acetyl-4-phenyl-piperidin-1-yl)-N-(4-cyclohexyl-phenyl)-acetamide]: the IC50 on Y2 receptor was more than 5 µM; on Human NPY5 receptor, 0.004 µM.
On the same counts, the results for `O=C(CN1CCC(CCCC2CCN(CCO)CC2)CC1)Nc1ccc(C2CCCCC2)cc1` [Compound 68, N-(4-Cyclohexyl-phenyl)-2-(4-{3-[1-(2-hydroxy-ethyl)-piperidin-4-yl]-propyl}-piperidin-1-yl)-acetamide] are more than 5 µM and 9.7 µM.
For `COc1ccc(C(=O)C2CCN(CC(=O)Nc3ccc(C(=O)c4ccccc4)cc3)CC2)cc1` [Compound 122, N-(4-Benzoyl-phenyl)-2-[4-(4-methoxy-benzoyl)-piperidin-1-yl]-acetamide], the results for the IC50 at Y2 receptor and on Human NPY5 receptor were more than 5 µM and 9.9 µM, respectively.
For the compound “1-[(4 Benzoyl-phenylcarbamoyl)-methyl]-4-dimethylamino-piperidine-4-carboxylic acid amide [Compound 53]”, the values for the IC50 at Y2 receptor and on Human NPY5 receptor were more than 5 µM and 0.44 µM, respectively.
Regarding `O=C(CN1CCC[C@@H]1C(=O)O)Nc1ccc(C2CCCCC2)cc1` [Compound 117, (2R)-1-[(4-Cyclohexyl-phenylcarbamoyl)-methyl]-pyrrolidine-2-carboxylic acid], the IC50 at Y2 receptor is more than 5 µM; on Human NPY5 receptor, 3 µM.
With `O=C(CN1CCC(CCCC2CCNCC2)CC1)Nc1ccc(C(=O)c2ccccc2)cc1` [Compound 37, N-(4-Benzoyl-phenyl)-2-[4-(3-piperidin-4-yl-propyl)-piperidin-1-yl]-acetamide], the IC50 is more than 5 µM on Y2 receptor and more than 10 µM at Human NPY5 receptor.
On the same counts, the results for `O=C(CN1CCC(Br)CC1)Nc1ccc(C2CCCCC2)cc1` [Compound 97, 2-(4-Bromo-piperidin-1-yl)-N-(4-Cyclohexyl-phenyl)-acetamide] are more than 5 µM and 0.15 µM.
Take `O=C(CN1CCC(O)(Cc2ccccc2)CC1)Nc1ccc(C(=O)c2ccccc2)cc1` [Compound 19, N-(4-Benzoyl-phenyl)-2-(4-benzyl-4-hydroxy-piperidin-1-yl)-acetamide]: the IC50 was more than 5 µM on Y2 receptor and 0.4 µM at Human NPY5 receptor.

One may read the IC50 as the midpoint of a concentration-inhibition curve.
